Results taken from patent publication US20240058240A1, “COMPOUNDS AS SELF-TANNING SUBSTANCES AND TANNING COMPOSITIONS THEREOF” (CHEMCOM S.A., priority 2020, published 2024).

Assays:
Assay type in all cases: cell-based
human skin explants [1] = assay: Cellular viability of human skin living explants (Masson's trichrome, Goldner variant)
Procedure: (§1) Human skin explants of an average diameter of 12 mm (±1 mm) were prepared on an abdoplasty coming from a person (reference: P2237AB47—phototype II) or person (reference P2196-AB61, phototype III). The explants were kept in survival in BEM culture medium (BIO-EC's Explants Medium) at 37° C. in a humid, 5%-CO2 atmosphere.
(§2) The Ambermax was diluted in 0.1% ethanol at the following concentrations: 0.3 μM, 1 μM, 3 μM, 10 μM, 15 μM, 30 μM and 100 μM. The diluted solutions were stored at 4° C. during the study.
(§3) The explants were treated for 10 days with Ambermax (see products application below) or with no treatment.
(§4) On day 0 (DO), day 3 (D3), day 5 (D5), day 7 (D7) and day 10 (D10), the tested products (compounds for use in the invention) were 1) applied topically using a small spatula based on 2 μl per explant (2 mg per cm^2) at the indicated concentrations, 2) applied intradermatically by injections into the dermis using a syringe with 20 μL of product for each explant or 3) applied systemically by dilutions of the compound of invention in the culture media at the indicated concentration. […] The culture medium was half renewed (1 ml/well) on day 3, day 5, day 7 and day 10.
(§5) On day 0 (D0), D2, D3, D6, and D8, the tested products (compounds for use in the invention) were applied topically using a small spatula on the basis of 2 μl per explant (2 mg per cm^2). […] The culture medium was half renewed (1 ml/well) on D2, D3, D6 and D8.
(§6) After fixation for 24 hours in buffered formalin solution, the samples were dehydrated and impregnated in paraffin using a Leica PEARL dehydration automat. The samples were then paraffin-embedded using a Leica EG 1160 embedding station. 5-μm-thick sections of paraffin-embedded formol fixed sections were realized using a Leica RM 2125 Minot-type microtome, and the sections were then mounted on Superfrost® Plus glass slides. Microscopical observations were realized using a Leica DMLB, a BX43 or BX63 Olympus microscope. Pictures were digitized with an Olympus DP72 or DP74 camera and the Cell^D or cellSens data storing software.
The cell viability of epidermal and papillary dermal structures was observed on formalin-fixed paraffin-embedded (FFPE) skin sections after Masson's trichrome staining, Goldner variant. The cell viability was assessed by microscopical observation. Concerned batches: T0, (TUV, P1→P10) on D5 or D6 and D10.
(§7) The effects ex vivo was shown by treating human biopsies for 10 days (human living explants: 12 mm+/−1, donor, skin type III) with a systemic application, intradermic injections or a topical application of compounds according to embodiments of the invention (Ambermax). Concentrations of 1, 5 and 10 μM of this compound were used for systemic application and intradermic injections on the human explants. For topical application, biopsies were treated with 10, 30, and 100 μM of Ambermax. As control, non-treated explants or/and explants exposed to chronic UVA-irradiations were used as described in the experimental procedures.

human skin explants [2] = assay: Melanogenesis in human skin living explants (Masson's Fontana staining, image analysis); conditions: for melanogenesis: compared with chronic UVA; for increase of melanin content in the basal layer of the epidermis (image analysis, stained surface): D6, explants phototype II, p<0.01
Procedure: as §1, §2, §3, §4, §5, §6
Melanin was visualized after silver impregnation according to Masson's Fontana staining method on formalin-fixed paraffin-embedded (FFPE) skin sections. The staining was assessed by microscopical observation and image analysis of specific batches. Concerned batches: T0, (TUV, P1→P10) on D5 or D6 and D10.
The images analyses were performed on all the images of each batch, according to the following method using Cell^D or cellSens software:
For each batch of explants, the percentage of the region of interest covered by the staining (stained surface percentage) is determined by image analysis according to the previously described process.
Stained surfaces comparisons: the stained surface percentage (Surf %) for each treatment is compared to the untreated condition=>P vs T. The same comparisons are made for the induced batches with or without treatment=>T vs TUV.
as §7

human skin explants [3] = assay: as above; conditions: systemic treatment, 3 and 5 μM, after 5 days, compared with chronic UVA

## Ambermax [Compound 16]
Human skin explants [1]; 0.3-100 μM, 3 different ways of application
  explant toxicity: doesn't induce explant toxicity
Human skin explants [1]; D5 and D10, 3 concentrations, 3 methods of application (topical, systemic, intradermal), skin type III
  explant viability: no significant alterations of explant viability
Human skin explants [1]; application of 100 μM, D10
  explant alterations: very slight alterations
Human skin explants [1]; topical administration, 100 μM
  alteration of the papillary dermis: no modification of the papillary dermis
  explant viability in the epidermis (macroscopic evaluation): very slight decrease in the viability
Human skin explants [2]; FFPE skin sections, without UVs exposure
  enhancement of melanogenesis (microscopical observation and semi-quantification of melanin staining): very effective to enhance melanogenesis without UVs exposure
Human skin explants [2]; intradermal injection for 10 days
  most effective concentration (melanogenesis): 1 µM
Human skin explants [2]; intradermal injection, 1 μM and 10 μM, after 5 days
  melanogenesis: increase of melanogenesis slightly weaker than that achieved with chronic UVA
Human skin explants [2]; second batch of explants, phototype II, topical
  melanin content present in the basal layer in skin explants: induced an increase of the melanin content present in the basal layer
Human skin explants [2]; systemic treatment, day 10
  most efficient concentration to stimulate melanin synthesis: 1 µM
Human skin explants [2]; topical 10 μM
  increase of melanin content in the basal layer of the epidermis (image analysis, stained surface): 152%
Human skin explants [2]; topical 15 μM
  increase of melanin content in the basal layer of the epidermis (image analysis, stained surface): 160%
Human skin explants [2]; topical treatment, 10 μM, 30 μM and 100 μM, 10 days
  melanogenesis: moderate melanogenesis induction, slightly lower than that obtained with of chronic UVA
Human skin explants [2]; topical treatment, 10 μM, 5 days
  melanogenesis: increase in melanogenesis comparable to that obtained with chronic UVA irradiation
Human skin explants [3]
  melanogenesis: rise of melanogenesis equivalent to the one obtained with a chronic UVA irradiation
